Data published in US20190119282A1, “IMIDAZOPYRIDAZINES USEFUL AS INHIBITORS OF THE PAR-2 SIGNALING PATHWAY” (Vertex Pharmaceuticals Incorporated, priority 2013, published 2019).

Tests used:
[1] = tested on: Thrombin-stimulated Ca2+ response in HT-29 cells; test: Ca FLIPR TETRA assay, ANTAGONIST mode, stimulation with 1 U/mL Thrombin; format: cell-based, human; settings: Homo sapiens, HT-29 cells
How it was run: (§1)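 HT-29 cells in 1% FBS/McCoy's overnight, loaded with Calcium 5 dye; compounds added and read first for intrinsic Ca2+ activation, then incubated 30 min at r.t. Antagonism read on FLIPR Tetra after stimulation with final 8 μM SLIGKV, 3.1 U/mL trypsin, 1 U/mL thrombin or 0.6 μM UTP.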

[2] = target: T1, PAR2 (HT-29 cells, trypsin activation) (Homo sapiens, UniProt P55085); test: Ca FLIPR TETRA assay, ANTAGONIST mode, stimulation with 3.1 U/mL trypsin; format: cell-based; settings: HT-29 cells
T1 construct: host or cells: HT-29 cells
T1 sequence (P55085 26-397): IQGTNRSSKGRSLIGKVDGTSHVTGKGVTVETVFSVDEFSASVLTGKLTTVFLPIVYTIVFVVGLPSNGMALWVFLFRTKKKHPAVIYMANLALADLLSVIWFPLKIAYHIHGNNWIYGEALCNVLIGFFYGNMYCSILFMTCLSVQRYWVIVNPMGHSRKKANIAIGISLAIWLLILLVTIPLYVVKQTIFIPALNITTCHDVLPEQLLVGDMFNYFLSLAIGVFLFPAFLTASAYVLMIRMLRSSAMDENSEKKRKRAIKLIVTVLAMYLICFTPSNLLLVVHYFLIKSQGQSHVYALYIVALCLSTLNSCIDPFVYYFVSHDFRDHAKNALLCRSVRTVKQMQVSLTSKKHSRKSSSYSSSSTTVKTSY
How it was run: as §1

[3] = tested on: UTP-stimulated Ca2+ response in HT-29 cells; test: Ca FLIPR TETRA assay, ANTAGONIST mode, stimulation with 0.6 μM UTP; format: cell-based, human; settings: Homo sapiens, HT-29 cells
How it was run: as §1

[4] = target: T2, PAR2 (HT-29 cells, SLIGKV activation) (Homo sapiens, UniProt P55085); test: Ca FLIPR TETRA assay, ANTAGONIST mode, stimulation with 8 μM SLIGKV; format: cell-based; settings: HT-29 cells
T2 construct: host or cells: HT-29 cells
T2 sequence (P55085 26-397): T1 sequence (P55085 26-397)
How it was run: as §1

[5] = stimulation with 1 U/mL Thrombin
[6] = stimulation with 3.1 U/mL trypsin
[7] = antagonist mode, stimulation with 1 U/mL Thrombin
[8] = antagonist mode, stimulation with 3.1 U/mL trypsin
[9] = antagonist mode, stimulation with 0.6 μM UTP
[10] = antagonist mode, stimulation with 8 μM SLIGKV
[11] = antagonist mode, 1 U/mL Thrombin
[12] = antagonist mode, 3.1 U/mL trypsin

SMILES	IC50 [1, 5] [nM]	IC50 [2, 6] [nM]	IC50 ([3]; stimulation with 0.6 μM UTP) [nM]	IC50 ([4]; stimulation with 8 μM SLIGKV) [nM]	IC50 [1, 7] [nM]	IC50 [2, 8] [nM]	IC50 [3, 9] [nM]	IC50 [4, 10] [nM]	further results
CCc1cc(-c2ccc(F)cc2)nn2cc(C(=O)N3CCN(C(=O)[C@H](O)C(C)C)[C@@H](C)C3)nc12 [Compound I-168]	16000	350	13000	67	–	–	–	–	–
CN(C)C(=O)CN1CCN(C(=O)c2cn3nc(-c4ccc(F)cc4)cc(C(C)(C)C)c3n2)C(C)(C)C1=O [Compound I-194]	–	–	–	–	> 1000	40.3	> 1000	41.3	–
CC1(C)C(=O)NCCN1C(=O)c1cn2nc(-c3ccc(F)cc3)cc(-c3cccnc3)c2n1 [Compound I-568]	–	–	–	–	–	–	–	–	IC50 [1, 11]: > 1000 nM; IC50 [2, 12]: 620 nM; IC50 ([3]; antagonist mode, 0.6 μM UTP): > 1000 nM; IC50 ([4]; antagonist mode, 8 μM SLIGKV): 520 nM
CC(C)c1cc(-c2ccc(C(F)F)cc2)nn2cc(C(=O)N3CCN(C(=O)c4ccn[nH]4)CC3(C)C)nc12 [Compound I-293]	–	–	–	–	> 1000	9.4	> 1000	6.6	–
CC(C)c1cc(-c2ccc(F)cc2)nn2cc(C(=O)N3CCN(C(=O)C4CC(O)(C(F)(F)F)C4)CC3(C)C)nc12 (centres unmarked) [Compound I-240]	–	–	–	–	> 1000	0.3	> 1000	0.1	–
CC(C)c1cc(-c2ccc(F)c(Cl)c2)nn2cc(C(=O)N3CCN(C(=O)[C@H]4C[C@@](C)(O)C4)CC3(C)C)nc12 [Compound I-482]	–	–	–	–	2700	2.7	6350	2.7	–
Cc1noc(C2CCCCN2C(=O)c2cn3nc(-c4ccc(F)cc4)cc(C(F)(F)F)c3n2)n1 (centres unmarked) [Compound I-72]	50000	1500	> 50000	1400	–	–	–	–	–
Cc1cc(C(=O)N2CCN(C(=O)c3cn4nc(-c5ccc(Cl)cc5)cc(C(C)(C)C)c4n3)C(C)(C)C2)[nH]n1 [Compound I-434]	–	–	–	–	> 1000	0.5	> 1000	0.5	–
CC(C)c1cc(-c2ccc(F)cc2F)nn2cc(C(=O)N3CCNC(=O)C3(C)C)nc12 [Compound I-477]	–	–	–	–	> 1000	93	> 1000	43	–
Cc1nc(C(=O)N2CCN(C(=O)c3cn4nc(-c5ccc(F)c(C)c5)cc(C(C)(C)C)c4n3)C(C)(C)C2)c[nH]1 [Compound I-383]	–	–	–	–	> 1000	2.9	> 1000	1.9	–
O=C(c1cn2nc(-c3ccc(F)cc3)cc(C(F)(F)F)c2n1)N1CCCCC1CO (centres unmarked) [Compound I-47]	16000	7500	32000	3100	–	–	–	–	–
Cc1cc(-c2ccc(F)cc2)nn2cc(C(=O)N3CCN(C(=O)OCc4ccccc4)[C@@H](C)C3)nc12 [Compound I-8, (S)-Benzyl 4-(6-(4-fluorophenyl)-8-methylimidazo[1,2-b]pyridazine-2-carbonyl)-2-methylpiperazine-1-carboxylate]	43000	690	31000	180	–	–	–	–	–
CC(C)c1cc(-c2ccc(F)c(F)c2)nn2cc(C(=O)N3CCN(C(=O)C(C)(C)O)CC3(C)C)nc12 [Compound I-221]	–	–	–	–	> 1000	39.5	> 1000	23.3	–
Cc1ncc(C(=O)N2CCN(C(=O)c3cn4nc(-c5ccc(F)c(Cl)c5)cc(C(C)(C)C)c4n3)C(C)(C)C2)[nH]1 [Compound I-467]	–	–	–	–	> 1000	2	> 1000	0.9	–
CC(C)c1cc(-c2ccc(Cl)cc2)nn2cc(C(=O)N3CCN(C(=O)[C@H]4C[C@@H](C(=O)O)C4)CC3(C)C)nc12 [Compound I-553]	–	–	–	–	> 1000	49.5	> 1000	24	–
CC[C@@H](O)C(=O)N1CCN(C(=O)c2cn3nc(-c4ccc(F)cc4)cc(C(C)C)c3n2)C[C@@H]1C [Compound I-118]	31000	1000	27000	16	–	–	–	–	–
CCc1cc(-c2ccc(F)cc2)nn2cc(C(=O)N3CCN(C(=O)[C@H](O)CC4CC4)CC3(C)C)nc12 [Compound I-173]	20000	13	23000	8	–	–	–	–	–
Cc1ccc(-c2cc(C(C)(C)C)c3nc(C(=O)N4CCNC(=O)C4(C)C)cn3n2)cc1F [Compound I-298]	–	–	–	–	> 1000	1.8	> 1000	2.3	–

SMILES	IC50 [1, 5] [nM]	IC50 [2, 6] [nM]	IC50 ([3]; stimulation with 0.6 μM UTP) [nM]	IC50 ([4]; stimulation with 8 μM SLIGKV) [nM]	IC50 [1, 7] [nM]	IC50 [2, 8] [nM]	IC50 [3, 9] [nM]	IC50 [4, 10] [nM]	further results
Cc1nnc(C(=O)N2CCN(C(=O)c3cn4nc(-c5ccc(F)cc5)cc(C(C)C)c4n3)C(C)(C)C2)o1 [Compound I-324]	–	–	–	–	> 1000	22.5	> 1000	21.1	–
CC(C)c1cc(-c2ccc(C(F)(F)F)c(F)c2)nn2cc(C(=O)N3CCN(C(=O)[C@H]4C[C@](O)(C(F)(F)F)C4)CC3(C)C)nc12 [Compound I-276]	–	–	–	–	> 1000	0.4	> 1000	0.4	–
CC(C)c1cc(-c2ccc(Cl)cc2)nn2cc(C(=O)N3CCNCC3(C)C)nc12 [Compound I-521]	–	–	–	–	> 1000	480	> 1000	625	–
CNC(=O)[C@@H]1CCN(C(=O)c2cn3nc(-c4ccc(F)cc4)cc(C(F)(F)F)c3n2)C[C@@H]1C [Compound I-95]	> 50000	7200	43000	1600	–	–	–	–	–
CC(C)c1cc(-c2cccc(F)c2)nn2cc(C(=O)N3CCNC(=O)C3(C)C)nc12 [Compound I-480]	–	–	–	–	> 1000	60	> 1000	20	–
CC1(C)C(=O)NCCN1C(=O)c1cn2nc(-c3ccc(F)cc3)cc(C(F)(F)F)c2n1 [Compound I-35, 4-[6-(4-Fluorophenyl)-8-(trifluoromethyl)imidazo[1,2-b]pyridazine-2-carbonyl]-3,3-dimethyl-piperazin-2-one]	43000	62	41000	23	–	–	–	–	–
Cc1cc(-c2ccc(F)cc2)nn2cc(C(=O)N3CCCCCC3)nc12 [Compound I-6, Azepan-1-yl-[6-(4-fluorophenyl)-8-methyl-imidazo[1,2-b]pyridazin-2-yl]methanone]	10000	2500	11000	1280	–	–	–	–	–
CC1(C)C(=O)NCCN1C(=O)c1cn2nc(-c3ccc(F)cc3)cc(-c3ccncc3)c2n1 [Compound I-569]	–	–	–	–	–	–	–	–	IC50 [1, 11]: > 1000 nM; IC50 [2, 12]: 640 nM; IC50 ([3]; antagonist mode, 0.6 μM UTP): > 1000 nM; IC50 ([4]; antagonist mode, 8 μM SLIGKV): 395 nM
CC(C)c1cc(-c2ccc(F)cc2)nn2cc(C(=O)N3CCN(C(=O)c4ccnnc4)CC3(C)C)nc12 [Compound I-306]	–	–	–	–	> 1000	185	> 1000	68	–
CC(C)(C)c1cc(-c2ccc(C(F)(F)F)cc2)nn2cc(C(=O)N3CCN(C(=O)c4ncccn4)CC3(C)C)nc12 [Compound I-399]	–	–	–	–	> 1000	1.5	> 1000	1.8	–
CC(C)c1cc(-c2ccc(C(F)(F)F)cc2)nn2cc(C(=O)N3CCN(C(=O)[C@H]4C[C@](O)(C(F)(F)F)C4)CC3(C)C)nc12 [Compound I-245]	–	–	–	–	> 1000	0.6	> 1000	0.3	–
CC(C)(C)c1cc(-c2ccc(F)cc2)nn2cc(C(=O)N3CCN(C(=O)C4(C(=O)O)CC4)CC3(C)C)nc12 [Compound I-562]	–	–	–	–	–	–	–	–	IC50 [1, 11]: > 1000 nM; IC50 [2, 12]: 128 nM; IC50 ([3]; antagonist mode, 0.6 μM UTP): > 1000 nM; IC50 ([4]; antagonist mode, 8 μM SLIGKV): 28 nM
CC(C)c1cc(-c2ccc(F)cc2)nn2cc(C(=O)N3CCN(C(=O)[C@H]4CCC(=O)N4)CC3(C)C)nc12 [Compound I-177]	35000	82	40000	48	–	–	–	–	–
C#CCCC(=O)N1CCN(C(=O)c2cn3nc(-c4ccc(F)cc4)cc(C(C)C)c3n2)C[C@@H]1C [Compound I-126]	13000	210	13000	25	–	–	–	–	–
Cc1cc(C(=O)N2CCN(C(=O)c3cn4nc(-c5ccc(C(F)(F)F)cc5)cc(C(C)C)c4n3)C(C)(C)C2)[nH]n1 [Compound I-390]	–	–	–	–	> 1000	1.3	> 1000	1	–
CC(C)(C)c1cc(-c2ccc(F)cc2)nn2cc(C(=O)N3CCN(CC(=O)O)C(=O)C3(C)C)nc12 [Compound I-518]	–	–	–	–	> 1000	68.5	> 1000	57	–
C[C@H]1CN(C(=O)c2cn3nc(-c4ccc(F)cc4)cc(C(F)(F)F)c3n2)CCN1C(=O)c1ccccc1 [Compound I-89]	> 50000	900	> 50000	270	–	–	–	–	–
